Results published in patent publication US8378104B2 (OSI Pharmaceuticals, LLC, priority 2010, dated 2013).
Structures can show the parent of a compound that is named as a salt.

Target: T1, TAK1-TAB1 fusion protein (Homo sapiens, UniProt O43318)
T1 construct: purchased Carna
T1 sequence (O43318 with tags, fused parts or gaps limits assumed): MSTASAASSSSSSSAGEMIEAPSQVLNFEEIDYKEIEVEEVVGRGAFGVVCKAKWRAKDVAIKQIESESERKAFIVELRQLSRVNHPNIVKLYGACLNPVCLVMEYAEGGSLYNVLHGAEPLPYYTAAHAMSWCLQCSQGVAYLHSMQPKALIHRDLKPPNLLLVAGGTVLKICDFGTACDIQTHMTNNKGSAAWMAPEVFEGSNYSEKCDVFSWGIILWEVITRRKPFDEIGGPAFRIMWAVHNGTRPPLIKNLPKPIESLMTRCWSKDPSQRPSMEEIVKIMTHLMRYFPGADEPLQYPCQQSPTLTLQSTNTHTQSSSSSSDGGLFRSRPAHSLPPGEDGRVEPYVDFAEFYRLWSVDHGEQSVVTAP
Test: TAK1 biochemical assay (AlphaScreen, GST-MAP2K7 substrate)
Conditions: TAK1-TAB1 fusion protein, GST-MAP2K7 substrate; read-out: mean TAK1 IC50 (Col. A)

Structure (SMILES) | IC50 [µM]
O[C@H]1CC[C@H](n2cc(-c3cncc4oc(-c5cccc6ncsc56)cc34)cn2)CC1 | 0.1 to 1
Nc1ncc(-c2cnn(C3CCNCC3)c2)c2cc(-c3cc(C(F)(F)F)cc(C(F)(F)F)c3)oc12 [Example 1, 2-{(3,5-Bis-trifluoromethyl)phenyl}-4-(1-piperidin-4-yl-1H-pyrazol-4-yl)-furo[2,3-c]pyridin-7-ylamine] | 1 to 10
Nc1ncc(-c2cnn(C3CCNCC3)c2)c2cc(-c3ccccc3)oc12 [Example 2, 2-phenyl-4-[1-(piperidin-4-yl)-1H-pyrazol-4-yl]furo[2,3-c]pyridin-7-amine] | 1 to 10
Nc1ncc(-c2cnn(C3CCNCC3)c2)c2cc(-c3cccc4ccccc34)oc12 [Example 3, 2-(naphthalen-1-yl)-4-[1-(piperidin-4-yl)-1H-pyrazol-4-yl]furo[2,3-c]pyridin-7-amine] | 1 to 10
Nc1ncc(-c2cnn(C3CCNCC3)c2)c2cc(-c3cccc(Cl)c3Cl)oc12 [Example 4, 2-(2,3-dichlorophenyl)-4-[1-(piperidin-4-yl)-1H-pyrazol-4-yl]furo[2,3-c]pyridin-7-amine] | 1 to 10
COc1c(F)cccc1-c1cc2c(-c3cnn(C4CCNCC4)c3)cnc(N)c2o1 [Example 5, 2-(3-fluoro-2-methoxyphenyl)-4-[1-(piperidin-4-yl)-1H-pyrazol-4-yl]furo[2,3-c]pyridin-7-amine dihydrochloride] | 1 to 10
Nc1ncc(-c2cnn(C3CCNCC3)c2)c2cc(-c3cccc(C(F)(F)F)c3)oc12 [Example 6, 4-[1-(piperidin-4-yl)-1H-pyrazol-4-yl]-2-[3-(trifluoromethyl)phenyl]furo[2,3-c]pyridin-7-amine] | 1 to 10
Nc1ncc(-c2cnn(C3CCNCC3)c2)c2cc(-c3cc(F)cc(C(F)(F)F)c3)oc12 [Example 7, 2-[3-fluoro-5-(trifluoromethyl)phenyl]-4-[1-(piperidin-4-yl)-1H-pyrazol-4-yl]furo[2,3-c]pyridin-7-amine] | 1 to 10
Nc1ncc(-c2cnn(C3CCNCC3)c2)c2cc(-c3cc(F)cc(F)c3)oc12 [Example 8, 2-(3,5-difluorophenyl)-4-[1-(piperidin-4-yl)-1H-pyrazol-4-yl]furo[2,3-c]pyridin-7-amine] | 1 to 10
Cc1c(-c2ccccc2)oc2c(N)ncc(-c3cnn(C4CCNCC4)c3)c12 [Example 9, methyl-2-phenyl-4-[1-(piperidin-4-yl)-1H-pyrazol-4-yl]furo[2,3-c]pyridin-7-amine hydrochloride] | 1 to 10
Cc1c(-c2cccc3ccsc23)oc2c(N)ncc(-c3cnn(C4CCNCC4)c3)c12 [Example 10, 2-(1-benzothiophen-7-yl)-3-methyl-4-[1-(piperidin-4-yl)-1H-pyrazol-4-yl]furo[2,3-c]pyridin-7-amine hydrochloride] | 1 to 10
Cc1c(-c2ccc3[nH]ncc3c2)oc2c(N)ncc(-c3cnn(C4CCNCC4)c3)c12 [Example 11, 2-(1H-indazol-5-yl)-3-methyl-4-[1-(piperidin-4-yl)-1H-pyrazol-4-yl]furo[2,3-c]pyridin-7-amine hydrochloride] | 1 to 10
Nc1ncc(-c2cnn(C3CCNCC3)c2)c2c(Cl)c(-c3ccccc3)oc12 [Example 12, 3-chloro-2-phenyl-4-[1-(piperidin-4-yl)-1H-pyrazol-4-yl]furo[2,3-c]pyridin-7-amine hydrochloride] | 0.1 to 1
Nc1ncc(-c2cnn(C3CCNCC3)c2)c2c(Cl)c(-c3cccc4ccsc34)oc12 [Example 13, 2-(1-benzothiophen-7-yl)-3-chloro-4-[1-(piperidin-4-yl)-1H-pyrazol-4-yl]furo[2,3-c]pyridin-7-amine hydrochloride] | < 0.1
Nc1ncc(-c2cnn(C3CCNCC3)c2)c2c(Cl)c(-c3ccc4[nH]ccc4c3)oc12 [Example 14, 3-chloro-2-(1H-indol-5-yl)-4-[1-(piperidin-4-yl)-1H-pyrazol-4-yl]furo[2,3-c]pyridin-7-amine hydrochloride] | 1 to 10
Cn1cnc2cc(-c3oc4c(N)ncc(-c5cnn(C6CCNCC6)c5)c4c3Cl)cnc21 [Example 15, 3-chloro-2-(3-methyl-3H-imidazo[4,5-b]pyridine-6-yl)-4-[1-(piperidin-4-yl)-1H-pyrazol-4-yl]furo[2,3-c]pyridin-7-amine hydrochloride] | 1 to 10
Nc1ncc(-c2cnn(C3CCNCC3)c2)c2c(Cl)c(-c3cccc4cnccc34)oc12 [Example 16, 3-chloro-2-(isoquinoolin-5-yl)-4-[1-(piperidin-4-yl)-1H-pyrazol-4-yl]furo[2,3-c]pyridin-7-amine] | 1 to 10
Nc1ncc(-c2cnn(C3CCNCC3)c2)c2cc(-c3cccc4ccsc34)oc12 [Example 17, 4-{4-[7-amino-2-(1-benzothiophen-7-yl)furo[2,3-c]pyridine-4-yl]-1H-pyrazol-1-yl}piperidine hydrochloride] | 1 to 10

Structure (SMILES) | IC50 [µM]
CC(C)(C)OC(=O)N1CCC(n2cc(-c3cnc(N)c4oc(-c5cccc6ccsc56)cc34)cn2)CC1 [Example 17A] | > 10
Nc1ncc(-c2cnn(C3CCNCC3)c2)c2cc(-c3csc4ccccc34)oc12 [Example 19, 2-(1-benzothiophen-3-yl)-4-[1-(piperidin-4-yl)-1H-pyrazol-4-yl]furo[2,3-c]pyridine-7-amine] | 1 to 10
Nc1ccc(-c2cc3c(-c4cnn(C5CCNCC5)c4)cnc(N)c3o2)cn1 [Example 20, 2-(6-aminopyridin-3-yl)-4-[1-(piperidin-4-yl)-1H-pyrazol-4-yl]furo[2,3-c]pyridine-7-amine] | 1 to 10
Nc1ncc(-c2cnn(C3CCNCC3)c2)c2cc(-c3ccoc3)oc12 [Example 21, 2-(furan-3-yl)-4-[1-(piperidin-4-yl)-1H-pyrazol-4-yl]furo[2,3-c]pyridine-7-amine] | 1 to 10
Nc1ncc(-c2cnn(C3CCNCC3)c2)c2cc(-c3cccc(OC(F)(F)F)c3)oc12 [Example 22, 4-[1-(piperidin-4-yl)-1H-pyrazol-4-yl]-2-[3-(trifluoromethoxy)phenyl]furo[2,3-c]pyridine-7-amine] | > 10
CS(=O)(=O)Nc1cccc(-c2cc3c(-c4cnn(C5CCNCC5)c4)cnc(N)c3o2)c1 [Example 23, N-(3-{7-amino-4-[1-(piperidin-4-yl)-1H-pyrazol-4-yl]furo[2,3-c]pyridine-2-yl}phenyl)methanesulfonamide] | 1 to 10
CN(C)S(=O)(=O)Nc1cccc(-c2cc3c(-c4cnn(C5CCNCC5)c4)cnc(N)c3o2)c1 [Example 24, N′-(3-{7-amino-4-[1-(piperidin-4-yl)-1H-pyrazol-4-yl]furo[2,3-c]pyridine-2-yl}phenyl)-N,N-dimethylsulfuric diamide] | 1 to 10
Nc1ncc(-c2cnn(C3CCNCC3)c2)c2cc(-c3ccc4[nH]c(=O)[nH]c4c3)oc12 [Example 25, 5-{7-amino-4-[1-(piperidin-4-yl)-1H-pyrazol-4-yl]furo[2,3-c]pyridine-2-yl}-1,3-dihydro-2H-benzimidazol-2-one] | 1 to 10
Nc1ncc(-c2cnn(C3CCNCC3)c2)c2cc(-c3cccnc3)oc12 [Example 26, 4-[1-(piperidin-4-yl)-1H-pyrazol-4-yl]-2-(yridine-3-yl)furo[2,3-c]pyridine-7-amine] | 1 to 10
Nc1ncc(-c2cnn(C3CCNCC3)c2)c2cc(-c3ccn[nH]3)oc12 [Example 27, 4-[1-(piperidin-4-yl)-1H-pyrazol-4-yl]-2-(1H-pyrazol-5-yl)furo[2,3-c]pyridine-7-amine] | 1 to 10
Nc1ncc(-c2cnn(C3CCNCC3)c2)c2cc(-c3ccsc3)oc12 [Example 28, 4-[1-(piperidin-4-yl)-1H-pyrazol-4-yl]-2-(thiophen-3-yl)furo[2,3-c]pyridine-7-amine] | 1 to 10
Nc1ncc(-c2cnn(C3CCNCC3)c2)c2cc(-c3ccc4cc[nH]c4c3)oc12 [Example 29, 2-(1H-indol-6-yl)-4-[1-(piperidin-4-yl)-1H-pyrazol-4-yl]furo[2,3-c]pyridin-7-amine] | 1 to 10
Nc1ccc(-c2nc(-c3cc4c(-c5cnn(C6CCNCC6)c5)cnc(N)c4o3)ccc2N)nc1Cl [Example 30, 6-{7-amino-4-[1-(piperidin-4-yl)-1H-pyrazol-4-yl]furo[2,3-c]pyridine-2-yl}-6′-chloro-2,2′-bipyridine-3,5′-diamine] | 0.1 to 1
Nc1cncc(-c2cc3c(-c4cnn(C5CCNCC5)c4)cnc(N)c3o2)c1 [Example 31, 2-(5-aminopyridin-3-yl)-4-[1-(piperidin-4-yl)-1H-pyrazol-4-yl]furo[2,3-c]pyridine-7-amine] | 0.1 to 1
Nc1ncc(-c2cnn(C3CCNCC3)c2)c2cc(-c3cccc4cccnc34)oc12 [Example 32, 4-[1-(piperidin-4-yl)-1H-pyrazol-4-yl]-2-(quinolin-8-yl)furo[2,3-c]pyridine-7-amine] | 1 to 10
Nc1ncc(-c2cnn(C3CCNCC3)c2)c2cc(-c3cncc4ccccc34)oc12 [Example 34, 2-(isoquinolin-4-yl)-4-[1-(piperidin-4-yl)-1H-pyrazol-4-yl]furo[2,3-c]pyridine-7-amine] | 1 to 10
Nc1ncc(-c2cnn(C3CCNCC3)c2)c2cc(-c3cccc4c3Sc3ccccc3S4)oc12 [Example 35, 4-[1-(piperidin-4-yl)-1H-pyrazol-4-yl]-2-(thianthren-1-yl)furo[2,3-c]pyridine-7-amine] | 1 to 10
Nc1ncc(-c2cnn(C3CCNCC3)c2)c2cc(-c3cccc4c3oc3ccccc34)oc12 [Example 36, 2-(dibenzo[b,d]furan-4-yl)-4-[1-(piperidin-4-yl)-1H-pyrazol-4-yl]furo[2,3-c]pyridine-7-amine] | 0.1 to 1
